# Reference: patent US10730866B2, “Indole derivatives and use thereof” (Purdue Pharma L.P., priority 2014, dated 2020)
# Target: human Nav1.7 (Homo sapiens (Human), UniProt Q15858)
# Test: FLIPR or FLIPR TETRA sodium dye assay for sodium channel blocking activity
# Type: cell-based
# Conditions: recombinant HEK293 cells expressing human Nav1.7
# Description: In vitro assays were performed in a recombinant cell line expressing cDNA encoding the alpha subunit (Nav1.7, SCN9a, PN1, NE) of human Nav1.7 (Accession No. NM_002977). The cell line was provided by investigators at Yale University (Cummins et al, J. Neurosci. 18(23): 9607-9619 (1998)). For dominant selection of the Nav1.7-expressing clones, the expression plasmid co-expressed the neomycin resistance gene. The cell line was constructed in the human embryonic kidney cell line, HEK293, under the influence of the CMV […] promoter, and stable clones were selected using limiting dilution cloning and antibiotic selection using the neomycin analogue, G418. Recombinant beta and gamma subunits were not introduced into this cell line. Additional cell lines expressing recombinant Nav1.7 cloned from other species can also be used, alone or in combination with various beta subunits, gamma subunits or chaperones.
# Unless otherwise noted, cell culture reagents were purchased from Mediatech of Herndon, Va. The recombinant Nav1.7/HEK293 cells were routinely cultured in growth medium consisting of Dulbecco's […] essential medium containing 10% fetal bovine serum (FBS, Hyclone, Thermo Fisher Scientific, Logan, Utah), 100 U/mL penicillin, 100 μg/mL streptomycin, 2-4 mM L-glutamine, and […] G418. For natural, non-recombinant cell lines, the selective antibiotic was omitted, and additional media formulations can be applied as needed.
# The final buffer consisted of 20 mM Hepes, pH 7.3, 1.261 mM CaCl2, 0.493 mM MgCl2, 0.407 mM Mg(SO)4, 5.33 mM KCl, 0.441 mM KH2PO4, 137 mM NaCl, 0.336 mM Na2HPO4 and […] D-glucose (Hanks et al., Proc. Soc. Exp. Biol. Med. 71:196 (1949)), and the simple formulation was typically the basic buffer throughout the assay (i.e., all wash and addition steps).
# The fluorescence indicator used in the primary fluorescence assay was the cell permeant version of CoroNa™ Green (Invitrogen, Molecular Probes, Eugene, Oreg.), a dye that emits light in the fluorescence range (Harootunian et al., J. Biol. Chem. 264(32):19458-19467 (1989)). The intensity of this emission, but not the wavelength range, is increased when the dye is exposed to Na^+ ions, which it can bind with partial selectivity. Cells expressing Nav1.7 or other sodium channels were loaded with the CoroNa™ Green dye immediately in advance of the fluorescence assay, and then, after agonist stimulation, the mobilization of Na^+ ions was detected as the Na^+ ions flowed from the extracellular fluid into the cytoplasm through the activated sodium channel pores. The dye was stored in the dark as a lyophilized powder, and then an aliquot was dissolved immediately before the cell loading procedure, according to the instructions of the manufacturer, to a stock concentration of 10 mM in DMSO. It was then diluted in the assay buffer to a 4× concentrated working solution, so that the final concentration of dye in the cell loading buffer was 5 μM.
# In the fluorescence assays, two agonists were used in combination, namely 1) veratridine; and 2) the venom from the yellow scorpion, Leiurus quinquestriatus hebraeus. Veratridine is an alkaloid small molecule that facilitates the capture of channel openings by inhibiting inactivation, and the scorpion venom is a natural preparation that includes peptide toxins selective for different subsets of voltage-gated sodium channels. These scorpion toxins inhibit the fast inactivation of their cognate target channels. Stock solutions of the agonists were prepared to 40 mM in DMSO (veratridine) and 1 mg/mL in dH2O (scorpion venom), and then diluted to make a 4× or 2× stock (depending on the particular assay) in assay buffer, the final concentration being 100 μM (veratridine) and 10 μg/mL (scorpion venom). Both of the agonists were purchased from Sigma Aldrich, St. Louis, Mo.
# Test compounds were dissolved in DMSO to yield 10 mM stock solutions. […]
# Sequence of human Nav1.7 (Q15858 other isoform, or with tags, fused parts or gaps): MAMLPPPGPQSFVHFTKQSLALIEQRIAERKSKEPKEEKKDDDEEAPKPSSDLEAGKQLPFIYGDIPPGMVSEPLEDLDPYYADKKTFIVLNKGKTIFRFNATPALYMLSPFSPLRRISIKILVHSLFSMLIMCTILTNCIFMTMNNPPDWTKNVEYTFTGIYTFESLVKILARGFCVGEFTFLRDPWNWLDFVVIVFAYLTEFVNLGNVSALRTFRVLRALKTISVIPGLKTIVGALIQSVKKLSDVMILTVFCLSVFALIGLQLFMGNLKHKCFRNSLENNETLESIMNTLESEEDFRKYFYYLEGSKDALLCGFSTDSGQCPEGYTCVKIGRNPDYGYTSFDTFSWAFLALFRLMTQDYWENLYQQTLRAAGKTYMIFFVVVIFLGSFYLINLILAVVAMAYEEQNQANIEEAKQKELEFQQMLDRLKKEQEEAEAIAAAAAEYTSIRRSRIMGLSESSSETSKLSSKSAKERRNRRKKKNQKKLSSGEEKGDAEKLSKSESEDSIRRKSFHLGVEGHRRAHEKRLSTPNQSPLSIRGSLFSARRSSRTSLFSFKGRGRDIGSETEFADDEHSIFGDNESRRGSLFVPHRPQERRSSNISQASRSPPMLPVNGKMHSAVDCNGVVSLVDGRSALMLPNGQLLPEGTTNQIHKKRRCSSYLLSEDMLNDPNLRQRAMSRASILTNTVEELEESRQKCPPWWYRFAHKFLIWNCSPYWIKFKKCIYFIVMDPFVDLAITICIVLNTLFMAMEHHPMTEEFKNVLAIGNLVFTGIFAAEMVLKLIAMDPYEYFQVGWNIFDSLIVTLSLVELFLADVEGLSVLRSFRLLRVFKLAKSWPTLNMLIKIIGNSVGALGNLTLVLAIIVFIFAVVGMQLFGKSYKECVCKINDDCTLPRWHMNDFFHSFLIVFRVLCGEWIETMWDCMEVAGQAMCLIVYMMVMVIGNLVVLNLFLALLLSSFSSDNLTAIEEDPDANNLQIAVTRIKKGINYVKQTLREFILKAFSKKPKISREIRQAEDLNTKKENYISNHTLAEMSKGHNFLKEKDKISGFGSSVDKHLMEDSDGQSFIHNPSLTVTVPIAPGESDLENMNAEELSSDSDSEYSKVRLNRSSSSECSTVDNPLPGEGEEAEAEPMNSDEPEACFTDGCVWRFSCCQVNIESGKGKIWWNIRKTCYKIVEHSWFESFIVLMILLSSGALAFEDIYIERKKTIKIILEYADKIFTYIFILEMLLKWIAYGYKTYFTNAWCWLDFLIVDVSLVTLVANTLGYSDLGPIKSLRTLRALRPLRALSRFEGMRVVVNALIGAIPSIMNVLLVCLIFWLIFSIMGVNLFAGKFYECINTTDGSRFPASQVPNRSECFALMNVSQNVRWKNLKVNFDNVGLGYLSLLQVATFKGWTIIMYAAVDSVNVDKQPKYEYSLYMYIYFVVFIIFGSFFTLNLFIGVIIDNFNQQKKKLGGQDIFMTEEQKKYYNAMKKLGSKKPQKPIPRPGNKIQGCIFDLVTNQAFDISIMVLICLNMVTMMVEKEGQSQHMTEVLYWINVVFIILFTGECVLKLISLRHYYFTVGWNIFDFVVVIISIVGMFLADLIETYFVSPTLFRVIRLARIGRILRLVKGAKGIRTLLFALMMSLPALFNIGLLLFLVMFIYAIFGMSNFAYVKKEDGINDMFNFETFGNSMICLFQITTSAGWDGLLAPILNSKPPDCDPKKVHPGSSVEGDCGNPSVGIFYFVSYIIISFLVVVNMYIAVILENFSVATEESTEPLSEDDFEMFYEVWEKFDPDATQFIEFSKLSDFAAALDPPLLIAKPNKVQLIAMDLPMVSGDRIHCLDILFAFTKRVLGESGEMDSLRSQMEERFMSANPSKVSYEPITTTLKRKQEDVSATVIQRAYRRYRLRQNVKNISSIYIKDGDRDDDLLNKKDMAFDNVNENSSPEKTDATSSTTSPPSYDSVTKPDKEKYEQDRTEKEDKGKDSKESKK
row,SMILES,IC50 [µM]
1,"O=C(Nc1ccc(C(F)(F)F)cc1)c1cc(N[C@H]2CCNC2=O)cc(-c2ccc3[nH]ccc3c2)n1 [Compound 88, (S)-6-(1H-indol-5-yl)-4-((2-oxopyrrolidin-3-yl)amino)-N-(4-(trifluoromethyl)phenyl)picolinamide]",4.89 ± 0.388
2,"OC[C@@H](O)c1cccc(-c2ccc3nn(Cc4ccc(C(F)(F)F)cc4)cc3c2)n1 [Compound 108, (S)-1-(6-(2-(4-(trifluoromethyl)benzyl)-2H-indazol-5-yl)pyridin-2-yl)ethane-1,2-diol]",4.68 ± 0.412
3,"OC[C@@H](O)c1cccc(-c2ccc3c(ccn3Cc3ccc(C(F)(F)F)cc3)c2)n1 [Compound 109, (S)-1-(6-(1-(4-(trifluoromethyl)benzyl)-1H-indol-5-yl)pyridin-2-yl)ethane-1,2-diol]",0.177 ± 0.005
4,"OC[C@@H](O)c1cccc(-c2ccc3c(c2)ncn3Cc2ccc(C(F)(F)F)cc2)n1 [Compound 110, (S)-1-(6-(1-(4-(trifluoromethyl)benzyl)-1H-benzo[d]imidazol-5-yl)pyridin-2-yl)ethane-1,2-diol]",3.44 ± 0.712
5,"O=S(=O)(N1CCCCC1)n1ccc2cc(-c3cccc([C@H](O)CO)n3)ccc21 [Compound 111, (S)-1-(6-(1-(piperidin-1-ylsulfonyl)-1H-indol-5-yl)pyridin-2-yl)ethane-1,2-diol]",0.716 ± 0.073
6,"C[C@H](Nc1cc(C(N)=O)nc(-c2ccc3c(ccn3Cc3ccc(C(F)(F)F)cc3)c2)n1)C(N)=O [Compound 112, (S)-6-((1-amino-1-oxopropan-2-yl)amino)-2-(1-(4-(trifluoromethyl)benzyl)-1H-indol-5-yl)pyrimidine-4-carboxamide]",4.12 ± 0.525
7,"C[C@H](Nc1cc(C(N)=O)nc(-c2ccc3c(ccn3CC3CCCCC3)c2)n1)C(N)=O [Compound 113, (S)-6-((1-amino-1-oxopropan-2-yl)amino)-2-(1-(cyclohexylmethyl)-1H-indol-5-yl)pyrimidine-4-carboxamide]",4.43 ± 0.541
8,"N#Cc1cc([C@@H](O)CO)cc(-c2ccc3c(ccn3Cc3ccc(C(F)(F)F)cc3)c2)n1 [Compound 119, (R)-4-(1,2-dihydroxyethyl)-6-(1-(4-(trifluoromethyl)benzyl)-1H-indol-5-yl)picolinonitrile]",5.09 ± 0.356
9,"NC(=O)c1cc([C@H](O)CO)cc(-c2ccc3c(ccn3Cc3ccc(C(F)(F)F)cc3)c2)n1 [Compound 121, (S)-4-(1,2-dihydroxyethyl)-6-(1-(4-(trifluoromethyl)benzyl)-1H-indol-5-yl)picolinamide]",2.37 ± 0.364
10,"NC(=O)c1cc(-c2ccc3c(ccn3Cc3ccc(C(F)(F)F)cc3)c2)cc([C@@H](O)CO)n1 [Compound 122, (R)-6-(1,2-dihydroxyethyl)-4-(1-(4-(trifluoromethyl)benzyl)-1H-indol-5-yl)picolinamide]",1.74 ± 0.214
11,"CC(C)Cn1ccc2cc(-c3cc([C@H](O)CO)cc(C(N)=O)n3)ccc21 [Compound 124, (S)-4-(1,2-dihydroxyethyl)-6-(1-isobutyl-1H-indol-5-yl)picolinamide]",4.92 ± 0.7
12,"CC(C)Cn1ccc2cc(-c3cc([C@@H](O)CO)cc(C(N)=O)n3)ccc21 [Compound 125, (R)-4-(1,2-dihydroxyethyl)-6-(1-isobutyl-1H-indol-5-yl)picolinamide]",> 20
13,"CC(C)Cn1ccc2cc(-c3cc(C(N)=O)nc([C@H](O)CO)c3)ccc21 [Compound 126, (S)-6-(1,2-dihydroxyethyl)-4-(1-isobutyl-1H-indol-5-yl)picolinamide]",5.91 ± 0.536
14,"Cn1cc(-c2cccc(C(F)(F)F)c2)c2cc(-c3cccc(C(N)=O)n3)ccc21 [Compound 129, 6-(1-methyl-3-(3-(trifluoromethyl)phenyl)-1H-indol-5-yl)picolinamide]",10 to 20
15,"Cn1cc(-c2ccc(C(F)(F)F)cc2)c2cc(-c3cccc(C(N)=O)n3)ccc21 [Compound 130, 6-(1-methyl-3-(4-(trifluoromethyl)phenyl)-1H-indol-5-yl)picolinamide]",> 20
16,"CCN(CC)CCn1cc(-c2ccc(F)cc2)c2ccc(-c3cccc(C(N)=O)n3)cc21 [Compound 131, 6-(1-(2-(diethylamino)ethyl)-3-(4-fluorophenyl)-1H-indol-6-yl)picolinamide]",> 20
17,"Nc1cc(C(=O)Nc2ccc(C(F)(F)F)cc2)nc(-c2ccc3occc3c2)n1 [Compound 138, 6-amino-2-(benzofuran-5-yl)-N-(4-(trifluoromethyl)phenyl)pyrimidine-4-carboxamide]",3.66 ± 2.4
18,"O=C(Nc1ccc(C(F)(F)F)cc1)c1cccc(-c2ccc3[nH]cc(C(=O)O)c3c2)n1 [Compound 139, 5-(6-((4-(trifluoromethyl)phenyl)carbamoyl)pyridin-2-yl)-1H-indole-3-carboxylic acid]",> 20
19,"NC(=O)c1c[nH]c2ccc(-c3cccc(C(=O)Nc4ccc(C(F)(F)F)cc4)n3)cc12 [Compound 140, 5-(6-((4-(trifluoromethyl)phenyl)carbamoyl)pyridin-2-yl)-1H-indole-3-carboxamide]",> 20
20,"NC(=O)CC[C@H](NC(=O)c1c[nH]c2ccc(-c3cccc(C(=O)Nc4ccc(C(F)(F)F)cc4)n3)cc12)C(N)=O [Compound 141, (S)-2-(5-(6-((4-(trifluoromethyl)phenyl)carbamoyl)pyridin-2-yl)-1H-indole-3-carboxamido)pentanediamide]",> 20
21,"NC(=O)c1cccc(-c2ccc3c(c2)c(C(N)=O)cn3Cc2ccc(C(F)(F)F)cc2)n1 [Compound 142, 5-(6-carbamoylpyridin-2-yl)-1-(4-(trifluoromethyl)benzyl)-1H-indole-3-carboxamide]",> 20
22,"C[C@H](NC(=O)c1cn(Cc2ccc(C(F)(F)F)cc2)c2ccc(-c3cccc(C(N)=O)n3)cc12)C(N)=O [Compound 143, (S)-N-(1-amino-1-oxopropan-2-yl)-5-(6-carbamoylpyridin-2-yl)-1-(4-(trifluoromethyl)benzyl)-1H-indole-3-carboxamide]",> 20
23,"NC(=O)c1cccc(-c2ccc3c(c2)c(CN[C@H]2CCNC2=O)cn3Cc2ccc(C(F)(F)F)cc2)n1 [Compound 144, (S)-6-(3-(((2-oxopyrrolidin-3-yl)amino)methyl)-1-(4-(trifluoromethyl)benzyl)-1H-indol-5-yl)picolinamide]",2.54 ± 0.181
24,"NC(=O)c1cccc(-c2ccc3c(c2)c(CN[C@H]2CCNC2=O)cn3CC2CCCCC2)n1 [Compound 145, (S)-6-(1-(cyclohexylmethyl)-3-(((2-oxopyrrolidin-3-yl)amino)methyl)-1H-indol-5-yl)picolinamide]",10 to 20
25,"NC(=O)[C@H](O)[C@@H](O)c1cccc(-c2ccc3c(ccn3Cc3ccc(C(F)(F)F)cc3)c2)n1 [Compound 151, (2R,3S)-2,3-dihydroxy-3-(6-(1-(4-(trifluoromethyl)benzyl)-1H-indol-5-yl)pyridin-2-yl)propanamide]",0.773 ± 0.09
26,"NC(=O)[C@H](O)[C@@H](O)c1cccc(-c2ccc3c(ccn3CC3CCCCC3)c2)n1 [Compound 152, (2R,3S)-3-(6-(1-(cyclohexylmethyl)-1H-indol-5-yl)pyridin-2-yl)-2,3-dihydroxypropanamide]",0.402 ± 0.032
27,"CC(C)Cn1ccc2cc(-c3cccc([C@H](O)[C@@H](O)C(N)=O)n3)ccc21 [Compound 153, (2R,3S)-2,3-dihydroxy-3-(6-(1-isobutyl-1H-indol-5-yl)pyridin-2-yl)propanamide]",2.62 ± 0.071
28,"NC(=O)c1csc(-c2ccc3c(ccn3Cc3ccc(C(F)(F)F)cc3)c2)n1 [Compound 156, 2-(1-(4-(trifluoromethyl)benzyl)-1H-indol-5-yl)thiazole-4-carboxamide]",0.173 ± 0.018
